Here are results for one compound from ChEMBL document CHEMBL4507291 (2021).

Test [1] is described as follows: Inhibition of Atrial Natriuretic Factor (ANF) at 10 µM in the Eurofins-Panlabs radioligand binding assay (Eurofins_assay_211000). Conditions: Cavia porcellus; call rule not given here.
Test [2] deals with Substance-K receptor (Homo sapiens) (UniProt P21452). Briefly: Inhibition of Tachykinin NK2 at 10 µM in the Eurofins-Panlabs radioligand binding assay (Eurofins_assay_255600). Further details: ligand concentration 0.5 nM. The following applies: Compound concentration 10.0 uM.
Test [3] has as its target Adenosine Transporter (Cavia porcellus) (UniProt H0V4R7+H0UUG1+H0V3Z5). In words: (§1) Inhibition of Transporter, Adenosine at compound concentration of 10.0 uM in the Eurofins-Panlabs radioligand binding assay (Eurofins_assay_202000). The test is classed as protein assay. The arrangement: ligand concentration 0.5 nM, non-specific ligand with concentration 5 uM Nitrobenzylthioinosine, incubation time 30 min, incubation temperature 25 C.

For another test, the target named is Adenosine Transporter (Cavia porcellus, UniProt H0V4R7+H0UUG1+H0V3Z5). The test is described as §1. The test is classed as protein assay. Further details: ligand concentration 0.5 nM, non-specific ligand with concentration 5 uM Nitrobenzylthioinosine, incubation time 30 min, incubation temperature 25 C.
In test [4] the target is T1, Aurora kinase A (Homo sapiens) (UniProt O14965).
T1 sequence (whole entry): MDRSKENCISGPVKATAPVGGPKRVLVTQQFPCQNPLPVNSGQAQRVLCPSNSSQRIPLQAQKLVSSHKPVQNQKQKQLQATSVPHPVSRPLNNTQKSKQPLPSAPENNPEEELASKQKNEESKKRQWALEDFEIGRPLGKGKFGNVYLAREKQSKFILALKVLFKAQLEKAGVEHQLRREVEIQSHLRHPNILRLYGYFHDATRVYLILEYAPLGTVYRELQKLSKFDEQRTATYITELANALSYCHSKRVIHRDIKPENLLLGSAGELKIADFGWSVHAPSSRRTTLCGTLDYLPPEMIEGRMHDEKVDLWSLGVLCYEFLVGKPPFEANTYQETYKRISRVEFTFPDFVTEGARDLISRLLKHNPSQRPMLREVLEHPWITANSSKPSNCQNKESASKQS
Briefly: AURKA (Aurora A) Kinase screen. Conditions: Compound concentration 1.0 uM.

For test [5], the target named is Casein kinase I isoform gamma-2 (Homo sapiens) (UniProt P78368). In words: CSNK1G2 (CK1 gamma 2) Kinase screen. Conditions: Compound concentration 1.0 uM.
The subject of test [6] is Fibroblast growth factor receptor 3 (Homo sapiens), P22607 [K650E]. Briefly: FGFR3 K650E Kinase screen. Conditions: Compound concentration 1.0 uM.
For test [7], the target named is Vascular endothelial growth factor receptor 3 (Homo sapiens) (UniProt P35916). Briefly: FLT4 (VEGFR3) Kinase screen. Conditions: Compound concentration 1.0 uM.
Test [8] concerns the target Phosphatidylinositol 4-kinase beta (Homo sapiens) (UniProt Q9UBF8). In words: PI4KB (PI4K beta) Kinase screen. The following applies: Compound concentration 1.0 uM.
Test [9] addresses Ribosomal protein S6 kinase alpha-1 (Homo sapiens) (UniProt Q15418). Briefly: RPS6KA1 (RSK1) Kinase screen. The following applies: Compound concentration 1.0 uM.
In test [10] the target is T2, Tyrosine-protein kinase TXK (Homo sapiens) (UniProt P42681).
T2 sequence (whole entry): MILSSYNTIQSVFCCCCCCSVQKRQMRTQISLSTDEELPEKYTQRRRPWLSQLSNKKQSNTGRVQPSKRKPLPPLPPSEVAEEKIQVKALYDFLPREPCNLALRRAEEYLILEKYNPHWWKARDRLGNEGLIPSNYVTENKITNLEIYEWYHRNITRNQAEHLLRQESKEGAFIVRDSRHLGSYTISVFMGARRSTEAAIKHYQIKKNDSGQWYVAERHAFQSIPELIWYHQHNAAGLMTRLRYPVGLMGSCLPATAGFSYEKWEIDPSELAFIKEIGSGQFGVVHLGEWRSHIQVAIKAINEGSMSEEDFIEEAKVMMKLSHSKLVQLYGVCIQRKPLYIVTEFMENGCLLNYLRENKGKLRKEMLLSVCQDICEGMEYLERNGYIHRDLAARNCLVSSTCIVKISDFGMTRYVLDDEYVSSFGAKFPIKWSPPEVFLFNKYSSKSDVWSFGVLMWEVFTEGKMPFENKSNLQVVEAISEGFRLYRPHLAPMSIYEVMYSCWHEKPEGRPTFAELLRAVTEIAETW
Briefly: TXK Kinase screen. Conditions: Compound concentration 1.0 uM.

Another test is filed under the species Rattus norvegicus. In words: Protein Serine/Threonine Kinase, PKC, Non-Selective Eurofins-Panlabs enzyme assay. Conditions: Compound concentration 10.0 uM.
Test [11] concerns the target Vasopressin V2 receptor (Homo sapiens) (UniProt P30518). In words: Inhibition of Vasopressin V2 at 10 µM in the Eurofins-Panlabs radioligand binding assay (Eurofins_assay_287610). Conditions: Compound concentration 10.0 uM. The arrangement: ligand concentration 4 nM.
Test [12] deals with B2 bradykinin receptor (Homo sapiens) (UniProt P30411). The following applies: Compound concentration 10.0 uM.

Substance-K receptor (Homo sapiens), sequence (P21452 whole entry): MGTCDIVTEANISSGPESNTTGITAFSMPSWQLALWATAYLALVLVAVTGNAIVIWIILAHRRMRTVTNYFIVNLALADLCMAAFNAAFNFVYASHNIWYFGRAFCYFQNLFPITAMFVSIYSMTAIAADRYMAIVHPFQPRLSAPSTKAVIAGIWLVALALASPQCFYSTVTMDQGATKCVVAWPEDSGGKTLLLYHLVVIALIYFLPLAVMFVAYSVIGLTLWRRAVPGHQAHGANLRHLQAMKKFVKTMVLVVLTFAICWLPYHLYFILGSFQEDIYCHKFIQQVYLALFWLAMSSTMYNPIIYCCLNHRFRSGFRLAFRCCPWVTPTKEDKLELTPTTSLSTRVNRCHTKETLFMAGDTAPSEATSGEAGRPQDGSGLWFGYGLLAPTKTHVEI
Fibroblast growth factor receptor 3 (Homo sapiens), P22607 [K650E], sequence (P22607 whole entry K650E): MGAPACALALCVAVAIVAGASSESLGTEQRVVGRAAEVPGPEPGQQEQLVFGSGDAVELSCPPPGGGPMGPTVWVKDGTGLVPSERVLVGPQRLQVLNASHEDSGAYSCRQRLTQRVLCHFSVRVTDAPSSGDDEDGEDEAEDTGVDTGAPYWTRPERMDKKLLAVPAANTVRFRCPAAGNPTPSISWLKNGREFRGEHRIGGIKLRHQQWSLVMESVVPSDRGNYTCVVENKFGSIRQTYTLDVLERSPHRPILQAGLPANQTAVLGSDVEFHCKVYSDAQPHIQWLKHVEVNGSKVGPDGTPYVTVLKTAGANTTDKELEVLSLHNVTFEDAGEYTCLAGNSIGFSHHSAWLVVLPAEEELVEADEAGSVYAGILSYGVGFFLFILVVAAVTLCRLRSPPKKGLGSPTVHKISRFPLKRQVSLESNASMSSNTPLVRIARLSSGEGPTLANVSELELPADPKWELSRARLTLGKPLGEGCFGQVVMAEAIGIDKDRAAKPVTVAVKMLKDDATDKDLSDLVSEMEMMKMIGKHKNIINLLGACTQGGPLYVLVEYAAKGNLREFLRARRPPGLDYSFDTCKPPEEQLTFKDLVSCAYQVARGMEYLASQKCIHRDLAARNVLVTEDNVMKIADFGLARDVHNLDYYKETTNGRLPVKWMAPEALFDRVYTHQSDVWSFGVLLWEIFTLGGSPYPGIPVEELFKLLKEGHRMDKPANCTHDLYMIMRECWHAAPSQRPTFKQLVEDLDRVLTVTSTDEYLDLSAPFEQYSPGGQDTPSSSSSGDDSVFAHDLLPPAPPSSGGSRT
Vascular endothelial growth factor receptor 3 (Homo sapiens), sequence (P35916 whole entry): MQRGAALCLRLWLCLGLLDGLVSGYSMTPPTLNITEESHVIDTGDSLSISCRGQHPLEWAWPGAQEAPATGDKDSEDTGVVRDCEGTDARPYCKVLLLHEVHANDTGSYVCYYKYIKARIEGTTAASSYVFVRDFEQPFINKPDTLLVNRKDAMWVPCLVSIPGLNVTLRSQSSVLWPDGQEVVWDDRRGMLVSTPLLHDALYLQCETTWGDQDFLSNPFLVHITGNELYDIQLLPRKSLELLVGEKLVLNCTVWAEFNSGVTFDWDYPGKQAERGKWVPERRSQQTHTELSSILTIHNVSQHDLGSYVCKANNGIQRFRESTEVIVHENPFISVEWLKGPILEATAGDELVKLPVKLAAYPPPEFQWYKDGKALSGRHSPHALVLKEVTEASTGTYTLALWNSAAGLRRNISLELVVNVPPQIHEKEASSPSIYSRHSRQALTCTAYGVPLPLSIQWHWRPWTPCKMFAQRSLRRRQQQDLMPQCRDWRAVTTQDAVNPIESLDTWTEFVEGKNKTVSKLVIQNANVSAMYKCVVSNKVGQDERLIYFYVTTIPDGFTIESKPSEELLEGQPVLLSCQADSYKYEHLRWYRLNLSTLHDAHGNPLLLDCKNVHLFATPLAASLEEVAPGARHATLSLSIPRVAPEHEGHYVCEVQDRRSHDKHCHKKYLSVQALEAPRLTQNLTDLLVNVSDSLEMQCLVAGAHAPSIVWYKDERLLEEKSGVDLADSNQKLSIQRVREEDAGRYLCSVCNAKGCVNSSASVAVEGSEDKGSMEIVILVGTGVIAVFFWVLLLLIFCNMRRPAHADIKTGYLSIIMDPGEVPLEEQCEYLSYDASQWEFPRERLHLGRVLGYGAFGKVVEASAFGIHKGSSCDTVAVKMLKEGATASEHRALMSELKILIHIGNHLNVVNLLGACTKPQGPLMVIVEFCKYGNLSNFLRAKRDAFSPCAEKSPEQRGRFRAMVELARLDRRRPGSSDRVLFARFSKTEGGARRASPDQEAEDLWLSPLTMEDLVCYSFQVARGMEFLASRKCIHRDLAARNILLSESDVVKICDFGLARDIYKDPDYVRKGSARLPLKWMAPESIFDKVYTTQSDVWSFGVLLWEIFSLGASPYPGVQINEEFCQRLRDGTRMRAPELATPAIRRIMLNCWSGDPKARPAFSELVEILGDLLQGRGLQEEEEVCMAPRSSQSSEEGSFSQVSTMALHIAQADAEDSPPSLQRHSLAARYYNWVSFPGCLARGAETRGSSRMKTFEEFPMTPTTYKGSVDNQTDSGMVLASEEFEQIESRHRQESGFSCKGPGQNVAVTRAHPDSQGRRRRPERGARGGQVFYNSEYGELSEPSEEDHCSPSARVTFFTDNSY
Phosphatidylinositol 4-kinase beta (Homo sapiens), sequence (Q9UBF8 2-816 limits assumed): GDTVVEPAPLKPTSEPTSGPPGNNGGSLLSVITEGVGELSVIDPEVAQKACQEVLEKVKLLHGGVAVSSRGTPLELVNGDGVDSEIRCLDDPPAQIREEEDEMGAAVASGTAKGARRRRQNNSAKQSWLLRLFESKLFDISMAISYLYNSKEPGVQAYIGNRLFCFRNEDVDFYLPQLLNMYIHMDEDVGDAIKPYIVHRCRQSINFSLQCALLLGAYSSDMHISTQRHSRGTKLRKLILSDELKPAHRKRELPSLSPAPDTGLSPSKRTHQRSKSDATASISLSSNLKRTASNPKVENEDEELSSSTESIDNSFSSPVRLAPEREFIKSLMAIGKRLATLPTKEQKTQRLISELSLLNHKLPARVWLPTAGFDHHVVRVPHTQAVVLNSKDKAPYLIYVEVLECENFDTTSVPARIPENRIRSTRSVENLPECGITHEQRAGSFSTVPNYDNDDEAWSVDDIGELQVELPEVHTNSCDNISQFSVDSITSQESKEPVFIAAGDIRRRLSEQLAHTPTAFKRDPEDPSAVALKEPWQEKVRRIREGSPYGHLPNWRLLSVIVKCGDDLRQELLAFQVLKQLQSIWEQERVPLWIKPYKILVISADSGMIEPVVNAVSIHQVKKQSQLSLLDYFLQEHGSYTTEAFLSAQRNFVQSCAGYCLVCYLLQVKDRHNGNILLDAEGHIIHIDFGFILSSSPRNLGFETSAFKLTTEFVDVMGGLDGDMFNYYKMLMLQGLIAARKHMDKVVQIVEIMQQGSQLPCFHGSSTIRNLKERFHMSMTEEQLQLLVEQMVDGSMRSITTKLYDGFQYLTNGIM
Ribosomal protein S6 kinase alpha-1 (Homo sapiens), sequence (Q15418 whole entry): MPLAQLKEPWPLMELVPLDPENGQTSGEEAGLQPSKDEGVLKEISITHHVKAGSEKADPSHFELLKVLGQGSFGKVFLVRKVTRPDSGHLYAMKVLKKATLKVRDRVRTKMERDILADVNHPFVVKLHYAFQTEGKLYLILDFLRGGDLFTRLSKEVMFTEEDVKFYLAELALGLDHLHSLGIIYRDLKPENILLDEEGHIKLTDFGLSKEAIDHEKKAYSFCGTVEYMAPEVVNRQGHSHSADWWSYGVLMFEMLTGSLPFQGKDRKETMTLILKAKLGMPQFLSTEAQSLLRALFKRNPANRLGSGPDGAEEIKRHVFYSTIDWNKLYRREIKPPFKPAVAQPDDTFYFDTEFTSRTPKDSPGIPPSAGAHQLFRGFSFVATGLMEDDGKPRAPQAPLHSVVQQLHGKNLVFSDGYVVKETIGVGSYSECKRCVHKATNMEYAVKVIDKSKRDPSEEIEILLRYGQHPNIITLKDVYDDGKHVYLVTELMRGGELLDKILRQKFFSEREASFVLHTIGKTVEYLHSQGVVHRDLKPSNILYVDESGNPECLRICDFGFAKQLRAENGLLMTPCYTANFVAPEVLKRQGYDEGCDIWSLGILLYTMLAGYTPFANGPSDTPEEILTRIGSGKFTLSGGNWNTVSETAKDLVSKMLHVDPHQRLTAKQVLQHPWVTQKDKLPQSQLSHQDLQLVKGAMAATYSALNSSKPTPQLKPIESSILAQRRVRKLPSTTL
Casein kinase I isoform gamma-2 (Homo sapiens), sequence (P78368 whole entry, looked up, canonical isoform): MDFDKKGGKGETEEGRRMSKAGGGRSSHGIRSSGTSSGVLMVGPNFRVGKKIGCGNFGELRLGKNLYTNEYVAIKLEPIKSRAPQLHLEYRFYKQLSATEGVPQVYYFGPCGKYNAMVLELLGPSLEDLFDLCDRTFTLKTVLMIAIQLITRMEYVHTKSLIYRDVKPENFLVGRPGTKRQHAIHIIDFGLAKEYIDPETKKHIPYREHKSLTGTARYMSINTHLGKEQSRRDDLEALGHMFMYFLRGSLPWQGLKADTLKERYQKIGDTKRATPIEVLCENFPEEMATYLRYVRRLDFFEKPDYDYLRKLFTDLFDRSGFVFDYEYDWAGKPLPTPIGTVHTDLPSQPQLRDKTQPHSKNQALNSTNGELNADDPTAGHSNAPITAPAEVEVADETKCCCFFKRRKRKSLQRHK
Vasopressin V2 receptor (Homo sapiens), sequence (P30518 whole entry): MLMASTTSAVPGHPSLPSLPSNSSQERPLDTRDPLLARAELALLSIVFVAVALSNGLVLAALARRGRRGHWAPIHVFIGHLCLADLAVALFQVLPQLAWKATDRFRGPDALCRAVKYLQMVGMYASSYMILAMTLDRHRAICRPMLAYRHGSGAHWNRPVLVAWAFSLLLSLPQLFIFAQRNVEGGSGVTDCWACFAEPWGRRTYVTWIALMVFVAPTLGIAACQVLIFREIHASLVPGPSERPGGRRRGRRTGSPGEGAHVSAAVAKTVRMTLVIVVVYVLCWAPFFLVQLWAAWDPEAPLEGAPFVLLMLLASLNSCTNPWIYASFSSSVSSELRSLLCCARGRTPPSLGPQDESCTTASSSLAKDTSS

For orientation: inhibition means the drop in the measured response relative to a control, in per cent. For orientation: IC50 means the concentration that gives 50% inhibition. Higher therefore signals weaker potency. In general, Ki refers to the dissociation constant of the complex between target and ligand, obtained from inhibition or displacement. Read a high Ki as weaker binding. `C[C@@H]1CN(c2cc(-c3n[nH]c4ccc(OC5(C)CC5)cc34)ncn2)C[C@H](C)O1` [MLi-2]: the inhibition at 10 µM in test [1] was -2% (not active). Moreover, the inhibition was 27% in [2]; 2% in test [3] (Compound concentration 0.01 uM); -1% in test [3] (Compound concentration 0.1 uM); 11% in [3] (Compound concentration 1.0 uM); 51% in [3] (Compound concentration 10.0 uM); -0.211% in [4]. Also, the inhibition is 2.4% in test [5]; 3.43% in [6]; 8.71% in [7]; 1.46% in [8]; 8.66% in test [9]; 3.11% in [10]. Further, the inhibition was 26% in the test listed under Rattus norvegicus, 9% in test [11] and 7% in [12]. This compound also registered an IC50 on Adenosine Transporter of 9.7 µM. Moreover, the Ki on Adenosine Transporter was found to be 3.32 µM.
